Read-outs that look alike come from different tables or passages of the source. Where no end group is shown, it is not given here.
Tests used:
Aβ42 oligomers = Aβ42 oligomers (Homo sapiens, UniProt P05067); test: ELISA binding of histidine-tagged ZR derivatives to Aβ42 oligomers
SH-SY5Y cells [1] = details: for cell activity (MTT, relative to PBS control): Aβ42 4 μM, 48 hours, Aβ42 alone 71%
Procedure: (§1) SH-SY5Y cells were prepared into a single cell suspension with a medium (DMEM) containing 10% fetal bovine serum and then inoculated into a 96-well cell culture plate at 10000 cells per well and with a volume of 100 μL per well. The cells were incubated at 37° C., 5% of CO2 concentration for 24 hours in an incubator.
Aβ42: the final concentration of Aβ42 was 4 μM; a mixture of Aβ42 and ZR (Aβ:ZR=1:0.5): the final concentration of Aβ42 protein was 4 μM and the final concentration of ZR was 2 μM; a mixture of Aβ42 and ZR (Aβ: ZR=1:1): the final concentration of Aβ42 protein was 4 μM and the final concentration of ZR was 4 μM;
(§2) Cells were further cultured for 48 hours, then 10 μL of MTT solution was added into each well and incubated at 37° C. for 3 hours. Then the incubation was stopped by adding 100 μL dissolve solution (10% SDS and 5% iso-butanol dissolved in 0.01 M HCL) to each well, and incubated at 37° C. overnight to fully dissolve the MTT crystals. The absorbance of each well was measured on a multifunctional ELISA reader at a wavelength of 570 nm. After subtracting the background, the absorbance of the sample was divided by the absorbance of PBS control to act as an indicator of the cell activity, and the significant differences were analyzed.

SH-SY5Y cells [2] = details: for cell activity (MTT, relative to PBS control): amylin 4 μM, 48 hours, amylin alone 61%
Procedure: as §1
Amylin: the final concentration of amylin was 4 μM; a mixture of Amylin and ZR (Amylin:ZR=1:1): the final concentration of Amylin protein was 4 μM and the final concentration of ZR was 4 μM; a mixture of Amylin and ZR (Amylin: ZR=1:10): the final concentration of Amylin protein was 4 μM and the final concentration of ZR was 40 μM;
as §2

SH-SY5Y cells [3] = details: for cell activity (MTT, relative to PBS control): lysozyme 20 μM, 48 hours, lysozyme alone 55%
Procedure: as §1
Lysozyme: the final concentration of lysozyme was 20 μM; a mixture of lysozyme and ZR (lysozyme:ZR=1:1): the final concentration of lysozyme protein was 20 μM and the final concentration of ZR was 20 μM; a mixture of lysozyme and ZR (lysozyme: ZR=1:10): the final concentration of lysozyme protein was 20 μM and the final concentration of ZR was 200 μM;
as §2

SH-SY5Y cells [4] = details: for cell activity (MTT, relative to PBS control): insulin 60 μM, 48 hours, insulin alone 77%
Procedure: as §1
Insulin: the final concentration of insulin was 60 μM; a mixture of insulin and ZR (insulin:ZR=1:1): the final concentration of insulin protein was 60 μM and the final concentration of ZR was 60 μM; a mixture of insulin and ZR (insulin: ZR=1:5): the final concentration of insulin protein was 60 μM and the final concentration of ZR was 300 μM; PBS was used as control;
as §2

Sequence of Aβ42 oligomers (P05067 672-713 limits assumed): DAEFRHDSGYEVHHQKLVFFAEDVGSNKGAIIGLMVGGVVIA

How did the “OD450 of binding to Aβ42 oligomers” value (Aβ42 oligomers) turn out when AFFNNKR [sequence 7] was run?
The value was 0.22.

SFFNNKA [sequence 13] was tested. Which “OD450 of binding to Aβ42 oligomers” value (Aβ42 oligomers) did it give?
Its value is 0.14.

With SFFNAKR [sequence 11] as the substance, how does the “OD450 of binding to Aβ42 oligomers” value (Aβ42 oligomers) read?
Its value is 0.18.

Which “OD450 of binding to Aβ42 oligomers” value (Aβ42 oligomers) does the source give for SFANNKR [sequence 9] here?
Its value is 0.15.

For SFFNNAR [sequence 12], which “OD450 of binding to Aβ42 oligomers” value (Aβ42 oligomers) is on record?
The value was 0.14.

With “SFFNNKR [ZR, Ser-Phe-Phe-Asn-Asn-Lys-Arg]” as the substance, how does the “cell activity (MTT, relative to PBS control)” value (SH-SY5Y cells [1]; ZR 2 μM (Aβ:ZR=1:0.5)) read?
Its value is 80%.

And the “cell activity (MTT, relative to PBS control)” value (SH-SY5Y cells [1]; ZR 4 μM (Aβ:ZR=1:1))?
Its value is 82%.

And the “inhibition of cytotoxicity induced by Aβ42” value (SH-SY5Y cells [1]; molar ratio 1:1)?
Its value is 37.8%.

What about the “cell activity (MTT, relative to PBS control)” value (SH-SY5Y cells [2]; ZR 4 μM (Amylin:ZR=1:1)) of the same substance?
The value was 70%.

What about the “cell activity (MTT, relative to PBS control)” value (SH-SY5Y cells [2]; ZR 40 μM (Amylin:ZR=1:10)) of the same substance?
The value was 75%.

And the “inhibition of cytotoxicity induced by amylin” value (SH-SY5Y cells [2]; molar ratio 1:10)?
The value was 45.4%.

What about the “cell activity (MTT, relative to PBS control)” value (SH-SY5Y cells [3]; ZR 20 μM (lysozyme:ZR=1:1)) of the same substance?
Its value is 85%.

And the “cell activity (MTT, relative to PBS control)” value (SH-SY5Y cells [3]; ZR 200 μM (lysozyme:ZR=1:10))?
Its value is 93%.

And the “inhibition of cytotoxicity induced by lysozyme” value (SH-SY5Y cells [3]; molar ratio 1:10)?
The value was 117.6%.

What about the “cell activity (MTT, relative to PBS control)” value (SH-SY5Y cells [4]; ZR 60 μM (insulin:ZR=1:1)) of the same substance?
Its value is 92%.

What about the “cell activity (MTT, relative to PBS control)” value (SH-SY5Y cells [4]; ZR 300 μM (insulin:ZR=1:5)) of the same substance?
The value was 102%.

What about the “inhibition of cytotoxicity induced by insulin” value (SH-SY5Y cells [4]; molar ratio 1:5) of the same substance?
Its value is 89.8%.
